Laboratory results as given in US20190183952A1, “METHODS FOR PREPARING ACTIVE EXTRACT AND APPLICATION THEREOF” (BEIJING BOXIN NATURE BIOTECH LTD., priority 2016, published 2019).

Experiments:
[1] = system: human prostate strips from patients with BPH/LUTS; experiment: Organ bath, norepinephrine-contracted human prostate strips
Description: (§1) Organ Bath Experiments with Human Prostate and Bladder Tissues (FIGS. 10, 12, 19, and 20):
(§2) Specimens of human prostate and bladder neck were obtained from patients undergoing suprapubic adenomectomy (Millin's approach) for benign prostatic hyperplasia (BPH). […]
(§3) Human prostate and bladder neck specimens were cleaned of fat and connective tissue and cut into strips for organ bath assays. […] Tissues were subsequently exposed to 125 mM K^+ (equimolar substitution of […] in KHS) and contractile response was measured to check functionality. The relaxant effect induced by increasing doses of the NtB extract or the vehicle (distilled water) was evaluated in human prostate and bladder neck strips precontracted with 3-10 μM norepinephrine (NE) (80% of K^+-induced contraction, approximately) (FIG. 10). Relaxations of human prostate and bladder neck induced by PDES inhibition were evaluated by adding increasing concentrations of tadalafil (1 nM to 100 μM) on strips precontracted with NE and previously treated with NtB (10 mg/ml) or vehicle (distilled water) (FIG. 12). […] Concentration-response (relaxation) curves to lycopene (0.025 to 0.5 mg/ml) were also determined after NE-induced contraction in human bladder neck (FIG. 20A).

[2] = system: human bladder neck strips from patients with BPH/LUTS; experiment: Organ bath, norepinephrine-contracted human bladder neck strips
Description: as §1, §2, §3

[3] = system: androgen-independent human prostate cancer cell line, PC-3; experiment: XTT cell proliferation assay, PC-3; assay type: cell-based; details: lycopene 0.1 and 0.25 mg/ml
Description: (§4) Cell Proliferation Assays (FIGS. 7, 8, 16, and 17):
(§5) Human androgen-sensitive prostate cancer cell line, LNCaP, and androgen-insensitive prostate cancer cell line, PC-3 were cultured in RPMI-1640 medium supplemented with 2 mM L-glutamine and 10% fetal bovine serum (FBS). For proliferation assays LNCaP and PC-3 cells were seeded at 15,000 cells/well density in 24-well plates with complete medium (with 10% FBS). Cells were let to attach for 20 h and then, the culture medium was exchanged for fresh serum-free medium containing the respective treatments (androgens and test compounds). Viable cells content in each well was determined 72 h afterwards.
(§6) Proliferation was determined by the XTT cell viability assay (Cell Proliferation Kit II (XTT), Sigma-Aldrich, St. Louis, Mo., USA). This is a colorimetric assay that analyzes the number of viable cells by the cleavage of tetrazolium salts added to the culture medium. The cleavage product of tetrazolium salt XTT, in contrast to MTT, is soluble in water. The tetrazolium salt XTT is cleaved to formazan by a complex cellular mechanism. This bioreduction occurs in viable cells only. […] After this incubation period, the amount of formazan dye formed was quantitated using a plate reader. The measured absorbance at 490 nm directly correlates to the number of viable cells.

[4] = system: prostatic specific antigen (PSA) production by LNCaP; experiment: Androgen-stimulated PSA production (ELISA) in LNCaP cells; assay type: cell-based, human; details: testosterone or dihydrotestosterone (40 nM), 24 h; lycopene 0.1 and 0.25 mg/ml
Description: Prostatic-Specific Antigen (PSA) Determinations (FIGS. 9 and 18):
For this purpose, LNCaP cells were seeded at 25,000 cells/well in 24-well plates and let to grow in complete medium (10% FBS) at 80% confluence, approximately, that is typically achieved after 48 h. The culture medium was then exchanged for fresh serum-free medium containing the respective treatments (androgens and/or NtB and/or lycopene). Conditioned media was collected 24 h afterwards and PSA concentrations were determined by using a colorimetric ELISA kit following manufacturer's instructions (Ray Biotech, Norcross, Ga., USA).

[5] = system: androgen-sensitive human prostate cancer cell line, LNCaP; experiment: XTT cell proliferation assay, LNCaP; assay type: cell-based
Description: as §4, §5, §6

## CC(C)=CCC/C(C)=C/C=C/C(C)=C/C=C/C(C)=C/C=C/C=C(C)/C=C/C=C(C)/C=C/C=C(\C)CCC=C(C)C [lycopene]
[1]
  relaxation (reversion of NE-induced contraction) of human prostate strips: could have relaxant activity by itself
[2]
  relaxation (reversion of NE-induced contraction) of human bladder neck strips: could have relaxant activity by itself
[3]
  proliferation of PC-3 cells in the absence of androgen stimulation: did not significantly influence proliferation
[3]; T or DHT 40 nM
  proliferation of PC-3 cells in the presence of T or DHT: failed to significantly reduce proliferation
[4]
  androgen-stimulated PSA production in LNCaP cells: prevented
[5]; lycopene 0.25 mg/ml, T or DHT 40 nM
  testosterone- or dihydrotestosterone-induced increase in proliferation of LNCaP cells: effectively reversed
[5]; lycopene 0.1 and 0.25 mg/ml
  proliferation of LNCaP cells in the absence of androgen stimulation: did not significantly influence proliferation
